In US12686692B2, “KRas G12D inhibitors” (Mirati Therapeutics, Inc., priority 2020, dated 2026):

Legend:
KRas G12D [1] = target: T1, KRas G12D (Homo sapiens, UniProt P01116, G12D); test: KRas G12D Surface Plasmon Resonance (SPR) Binding Assay; conditions: Biacore T200, biotinylated Avidin-tagged KRAS protein on SA chip, 20 C, 1:1 binding model
Experimental: This Example illustrates that exemplary compounds of the present invention bind to KRas G12D as measured by surface plasmon resonance (SPR). Briefly, 1 L of 1.05×HBS-Mg buffer (262.5 mM BioUltra Hepes, pH 7.5, 157.5 mM NaCl, 105 mM MgCl2, 0.525 mM TCEP, […] Brij-35) was prepared and filter sterilized using a 0.22 μm bottle top filter. Approximately 50 mL of 1.05×HBS-Mg buffer was removed and saved for future dilutions. A 50 mL aliquot of DMSO (Sigma Aldrich DMSO Lot. #SHBK2079) was added and continued to stir for 10 minutes, creating the final 1.0×HBS-Mg buffer (250 mM BioUltra Hepes pH 7.5, 150 mM NaCl, 100 mM MgCl2, 0.5 mM TCEP, 0.03% Brij-35). Biacore T200 instrument was primed using 1.0×HBS-Mg buffer before docking a GE Streptavidin (SA) chip and then primed two additional times prior to beginning the immobilization step. All immobilized protein mixtures were created using 3-5 mg/mL Biotinylated Avidin-tagged KRAS protein using the following immobilization settings: SA chip type, 1 flow cells per cycle, 720 second contact time, and 5 μL/min flow rate. Normalization of the detector was also performed during the immobilization step using the GE BiaNormalize solution. All compounds were diluted to 10 mM in 100% DMSO prior to being diluted 20× in 1.05× buffer. Another 10× dilution was created using 1.0× buffer prior to performing a series of 3× dilutions to create a compound concentration curve using the following assay settings: 20 C analysis temperature, General Settings=10 Hz data collection rate and multi-detection; Assay Steps=all set to LMW kinetics; Cycle Types=LMW kinetics (60s contact time, 120s dissociation time, 100 μL/min flow rate, extra wash after injection with 50% DMSO, flow path 1,2,3,4); Flow path detection=2-1, 4-3). Data evaluation was performed using the Biacore T200 Evaluation software and data fit to 1:1 binding model.
Target sequence in this assay (P01116 1-188 isoform P01116-2 G12D): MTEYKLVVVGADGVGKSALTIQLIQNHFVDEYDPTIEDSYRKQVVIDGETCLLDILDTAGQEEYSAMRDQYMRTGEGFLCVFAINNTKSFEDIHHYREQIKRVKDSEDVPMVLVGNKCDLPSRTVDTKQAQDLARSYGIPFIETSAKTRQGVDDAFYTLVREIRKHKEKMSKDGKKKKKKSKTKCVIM

KRas G12D [2] = target: T1, KRas G12D; test: KRas G12D Binding Assay (TR-FRET displacement of labeled tracer); parameters: corresponding to amino acids 1:169, produced at Array BioPharma; biotin (protein is biotinylated); conditions: TR-FRET displacement of Cy5 labelled tracer, biotinylated GDP-loaded KRAS G12D (aa 1:169), 60 minute incubation at 22° C.
Outline: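 Biotinylated GDP-loaded human KRAS G12D (aa 1–169) incubated with Cy5 tracer, Eu-streptavidin and compound (2% DMSO final) in 50 mM HEPES pH 7.5, 5 mM MgCl2, 0.005% Tween-20, 1 mM DTT, 60 min at 22 °C. TR-FRET ratio converted to percent of control; IC50 at 50 POC from 4-parameter logistic fit.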
Target sequence in this assay (P01116 1-169 isoform P01116-2 G12D): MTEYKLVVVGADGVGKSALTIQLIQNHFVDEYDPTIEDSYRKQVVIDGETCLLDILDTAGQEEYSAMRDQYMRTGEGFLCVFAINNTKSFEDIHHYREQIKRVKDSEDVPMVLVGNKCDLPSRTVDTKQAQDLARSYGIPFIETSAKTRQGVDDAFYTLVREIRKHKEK

Kd (KRas G12D [1]) | IC50 (KRas G12D [2]) | Structure (SMILES)
2.1 µM | 1.12 µM | CN1CCC[C@H]1COc1nc2c(c(N3C[C@H]4CC[C@@H](C3)N4)n1)CCN(c1cccc3ccccc13)C2 [Example 70, 4-((1R,5S)-3,8-diazabicyclo[3.2.1]octan-3-yl)-2-(((S)-1-methylpyrrolidin-2-yl)methoxy)-7-(naphthalen-1-yl)-5,6,7,8-tetrahydropyrido[3,4-d]pyrimidine]
24.3 µM | > 10 µM | COC1CC(N2CCc3c(nc(OC[C@@H]4CCCN4C)nc3N3C[C@H]4CC[C@@H](C3)N4)C2)c2ccccc21 (stereo partly drawn) [Example 36, 4-((1R,5S)-3,8-diazabicyclo[3.2.1]octan-3-yl)-7-(3-methoxy-2,3-dihydro-1H-inden-1-yl)-2-(((S)-1-methylpyrrolidin-2-yl)methoxy)-5,6,7,8-tetrahydropyrido[3,4-d]pyrimidine]
0.847 µM | 6.79 µM | CN1CCC[C@H]1COc1nc2c(c(N3C[C@H]4CC[C@@H](C3)N4)n1)CCN(c1c(F)c(O)c(F)c3ccccc13)C2 [Example 25, 4-(4-((1R,5S)-3,8-diazabicyclo[3.2.1]octan-3-yl)-2-(((S)-1-methylpyrrolidin-2-yl)methoxy)-5,8-dihydropyrido[3,4-d]pyrimidin-7(6H)-yl)-1,3-difluoronaphthalen-2-ol]
19.9 µM | 6.57 µM | CN1CCC[C@H]1COc1nc2c(c(N3C[C@H]4CC[C@@H](C3)N4)n1)CCN(c1cccc3cccc(CCCC#N)c13)C2 [Example 83, 4-(8-(4-((1R,5S)-3,8-diazabicyclo[3.2.1]octan-3-yl)-2-(((S)-1-methylpyrrolidin-2-yl)methoxy)-5,8-dihydropyrido[3,4-d]pyrimidin-7(6H)-yl)naphthalen-1-yl)butanenitrile]
2.1 µM | 1.09 µM | C[C@H]1CC2CN(c3nc(OC[C@@H]4CCCN4C)nc4c3CCN(c3cccc5cccc(Cl)c35)C4)C[C@H]1N2 (single isomer, unassigned) [Example 88]
0.938 µM | 1.46 µM | CN1CCC[C@H]1COc1nc2c(c(N3C[C@H]4C/C(=C/C#N)[C@@H](C3)N4)n1)CCN(c1cccc3cccc(Cl)c13)C2 (single isomer, unassigned) [Example 90]
33.2 µM | 2.9 µM | O[C@@H]1C[C@@H]2CN(c3nc(OCCC(F)(F)F)nc4c3CCN(c3cccc5cccc(Cl)c35)C4)C[C@H]1N2 [Example 86, (1R,5R,6R)-3-(7-(8-chloronaphthalen-1-yl)-2-(3,3,3-trifluoropropoxy)-5,6,7,8-tetrahydropyrido[3,4-d]pyrimidin-4-yl)-3,8-diazabicyclo[3.2.1]octan-6-ol]
27.1 µM | > 10 µM | CN1CCC[C@H]1COc1nc2c(c(N3C[C@H]4C/C(=C\C#N)[C@@H](C3)N4)n1)CCN(c1cccc3cccc(Cl)c13)C2 (single isomer, unassigned) [Example 89]
570 µM | > 10 µM | CN1CCC[C@H]1COc1nc2c(c(N3C[C@H]4CC[C@@H](C3)N4)n1)CCN(C1CC(O)c3ccccc31)C2 (stereo partly drawn) [Example 35, 3-(4-((1R,5S)-3,8-diazabicyclo[3.2.1]octan-3-yl)-2-(((S)-1-methylpyrrolidin-2-yl)methoxy)-5,8-dihydropyrido[3,4-d]pyrimidin-7(6H)-yl)-2,3-dihydro-1H-inden-1-ol]
3.23 µM | 3.17 µM | Cc1ccc2cccc(N3CCc4c(nc(OC[C@@H]5CCCN5C)nc4N4C[C@H]5CC[C@@H](C4)N5)C3)c2c1 [Example 110, 4-((1R,5S)-3,8-diazabicyclo[3.2.1]octan-3-yl)-7-(7-methylnaphthalen-1-yl)-2-(((S)-1-methylpyrrolidin-2-yl)methoxy)-5,6,7,8-tetrahydropyrido[3,4-d]pyrimidine]
38.4 µM | > 10 µM | Cc1c(O)cc(N2CCc3c(nc(OC[C@@H]4CCCN4C)nc3N3C[C@H]4CC[C@@H](C3)N4)C2)c2ccccc12 [Example 69, 4-(4-((1R,5S)-3,8-diazabicyclo[3.2.1]octan-3-yl)-2-(((S)-1-methylpyrrolidin-2-yl)methoxy)-5,8-dihydropyrido[3,4-d]pyrimidin-7(6H)-yl)-1-methylnaphthalen-2-ol]
6.37 µM | 1.32 µM | Cc1ccc2[nH]ncc2c1N1CCc2c(nc(OC[C@@H]3CCCN3C)nc2N2C[C@H]3CC[C@@H](C2)N3)C1 [Example 3, 4-((1R,5S)-3,8-diazabicyclo[3.2.1]octan-3-yl)-7-(5-methyl-1H-indazol-4-yl)-2-(((S)-1-methylpyrrolidin-2-yl)methoxy)-5,6,7,8-tetrahydropyrido[3,4-d]pyrimidine]
302 µM | 7.86 µM | COc1nc2c(c(N3C[C@H]4CC[C@@H](C3)N4)n1)CCN(c1cccc3cccc(C)c13)C2 [Example 22, 4-((1R,5S)-3,8-diazabicyclo[3.2.1]octan-3-yl)-2-methoxy-7-(8-methylnaphthalen-1-yl)-5,6,7,8-tetrahydropyrido[3,4-d]pyrimidine]
98.5 µM | > 10 µM | CN1CCC[C@H]1COc1nc2c(c(N3C[C@H]4CC[C@@H](C3)N4)n1)CCN(c1cncc3ccccc13)C2 [Example 57, 4-((1R,5S)-3,8-diazabicyclo[3.2.1]octan-3-yl)-7-(isoquinolin-4-yl)-2-(((S)-1-methylpyrrolidin-2-yl)methoxy)-5,6,7,8-tetrahydropyrido[3,4-d]pyrimidine]
41.6 µM | > 10 µM | CN1CCC[C@H]1COc1nc2c(c(N3C[C@H]4CC[C@@H](C3)N4)n1)CCN(c1ccc(Br)c3cccc(Cl)c13)C2 [Example 74, 4-((1R,5S)-3,8-diazabicyclo[3.2.1]octan-3-yl)-7-(4-bromo-8-chloronaphthalen-1-yl)-2-(((S)-1-methylpyrrolidin-2-yl)methoxy)-5,6,7,8-tetrahydropyrido[3,4-d]pyrimidine]
> 1000 µM | 5.26 µM | CN1CCC[C@H]1COc1nc2c(c(N3C[C@H]4CC[C@@H](C3)N4)n1)CC(=O)N(Cc1ccccc1)C2 [Example 53, 7-benzyl-4-((1R,5S)-3,8-diazabicyclo[3.2.1]octan-3-yl)-2-(((S)-1-methylpyrrolidin-2-yl)methoxy)-7,8-dihydropyrido[3,4-d]pyrimidin-6(5H)-one]
4.22 µM | 1.78 µM | CN1CCC[C@H]1COc1nc2c(c(N3C[C@H]4CC[C@@H](C3)N4)n1)CCN(c1cccc3c1CCCC3)C2 [Example 71, 4-((1R,5S)-3,8-diazabicyclo[3.2.1]octan-3-yl)-2-(((S)-1-methylpyrrolidin-2-yl)methoxy)-7-(5,6,7,8-tetrahydronaphthalen-1-yl)-5,6,7,8-tetrahydropyrido[3,4-d]pyrimidine]
598 µM | 7.5 µM | CN1CCC[C@H]1COc1nc2c(c(N3C[C@H]4CC[C@@H](C3)N4)n1)CCN(c1nc(N)nc3ccccc13)C2 [Example 59, 4-(4-((1R,5S)-3,8-diazabicyclo[3.2.1]octan-3-yl)-2-(((S)-1-methylpyrrolidin-2-yl)methoxy)-5,8-dihydropyrido[3,4-d]pyrimidin-7(6H)-yl)quinazolin-2-amine]
3.16 µM | 1.1 µM | CN1CCC[C@H]1COc1nc2c(c(N3C[C@H]4CC[C@@H](C3)N4)n1)CCN(c1cccc3cccc(F)c13)C2 [Example 73, 4-((1R,5S)-3,8-diazabicyclo[3.2.1]octan-3-yl)-7-(8-fluoronaphthalen-1-yl)-2-(((S)-1-methylpyrrolidin-2-yl)methoxy)-5,6,7,8-tetrahydropyrido[3,4-d]pyrimidine]
264 µM | > 10 µM | CN1CCC[C@H]1COc1nc2c(c(N3C[C@H]4CC[C@@H](C3)N4)n1)CCN(c1c(O)cccc1F)C2 [Example 77, 2-(4-((1R,5S)-3,8-diazabicyclo[3.2.1]octan-3-yl)-2-(((S)-1-methylpyrrolidin-2-yl)methoxy)-5,8-dihydropyrido[3,4-d]pyrimidin-7(6H)-yl)-3-fluorophenol]
0.149 µM | 0.061 µM | CC1CCCc2cccc(N3CCc4c(nc(OC[C@@H]5CCCN5C)nc4N4C[C@H]5CC[C@@H](C4)N5)C3)c21 (stereo partly drawn) [Example 82, 4-((1R,5S)-3,8-diazabicyclo[3.2.1]octan-3-yl)-7-(8-methyl-5,6,7,8-tetrahydronaphthalen-1-yl)-2-(((S)-1-methylpyrrolidin-2-yl)methoxy)-5,6,7,8-tetrahydropyrido[3,4-d]pyrimidine]
